Patent US7605175B2, “Inhibitors of cyclin-dependent kinases, compositions and uses related thereto” (GPC Biotech AG, priority 2001, dated 2009)

Assays:
arrested IMR90 cells = test: Arrested cell assay, arrested IMR90 normal cells; format: cell-based; conditions: Homo sapiens, IMR-90; serum-starved arrested cells, 72 hours; read-out: Arrested cell assay IMR90 IC50
Protocol: (§1) Cyclin-dependent kinase (Cdk) activity is required to promote the progression of cells through distinct phases of the cell division cycle. The proliferation of normal, non-transformed, cells in culture requires the presence of growth factors, the removal of which, through serum deprivation, leads to a loss of Cdk activity and consequent exit from the cell cycle as cells enter the quiescent phase, G0.
IMR90 cells were plated in triplicate for each compound concentration to be tested in MEM-A media containing 10% fetal calf serum at a density of either 2,000 or 20,000 cells per well in 24-well dishes and incubated overnight at 37° C., 5% CO2. The media was removed from the 20,000 cell-per-well dish, cells were washed once with serum-free media, and serum-free media was placed on cells. The plates containing cells both in the presence and absence of serum were incubated for 3 additional days.
(§2) The cells are incubated in the presence of the compounds for 72 hours (3 days) at 37° C. […] Cycling and arrested HCT-116 cells as well as cycling IMR90 cells were exposed to a panel of 6 doses ranging from 5 to 250 nM. For arrested normal cells, the range of doses was increased to 50 nM to 25 μM, to compensate for the expected decrease in activity.
(§3) The effect of 72 hours of compound exposure on cellular viability was assessed in the Calcein AM assay. Calcein AM is a fluorescent substrate of intracellular esterases that are only active in viable cells. Cleavage of the substrate thus provides a measure of viability, which is proportional to cell number.
(§4) A Calcein AM stock solution was prepared by dissolving a 50 μg aliquot (Molecular Probes catalogue # C3100) in 50 μl DMSO. The tube was incubated at room temperature for approximately 10 minutes to ensure that the Calcein had dissolved completely. The calcein was diluted into 10 ml PBS to prepare the final solution, which was protected from light.
(§5) The media was aspirated off the cells, which were then washed twice with 1 ml PBS to remove the PBS completely from cells by aspiration. 0.5 ml of the Calcein/PBS solution was transferred by pipette into each well. The plates were incubated at 37° C. for 75 minutes (protected from light) and read on a fluorescent plate reader (excitation 485/20 and emission 530/25).

arrested HCT-116 cells = test: Arrested cell assay, arrested HCT-116 tumor cells; format: cell-based; conditions: Homo sapiens, serum-starved arrested cells, 72 hours, read-out: Arrested cell assay HCT IC50
Protocol: as §1
HCT-116 cells were plated in triplicate for each compound concentration to be tested in RPMI 1640 media containing 10% fetal calf serum at a density of either 200 or 2,000 cells per well in 24 well dishes, and incubated overnight at 37° C., 5% CO2. The media from the plate containing 2,000 cells per well was removed, cells were washed once with serum free media and 1 ml of serum free media was placed on cells. The plates containing cells both in the presence and absence of serum were incubated for 6 additional days.
as §2, §3, §4, §5

HCT-116 cells [1] = test: Calcein AM viability assay, HCT-116; format: cell-based; conditions: Homo sapiens
Protocol: The potency of Cdk inhibitors, as measured by loss of cellular viability, was determined with the Calcein AM assay (Molecular Probes). Calcein AM is a substrate of intracellular esterases, which is cleaved only in viable cells to generate a fluorescent product that can be quantified with a fluorescent plate reader. The fluorescent signal is proportional to the number of viable cells, and thus loss of signal in response to the exposure of cells to Cdk inhibitors correlates with a loss of viability. This assay can distinguish cell cycle arrest, in which cells may still by viable, from loss of viability and is thus well suited for the evaluation of Cdk inhibitors. A compound that is a potent cytotoxic, may cause significant loss of cell viability in such assay.
Cellular IC50's were determined in the human colorectal carcinoma cell line, HCT-116, and the normal human fibroblast, IMR90. Protein adjusted IC50's were also determined in HCT-116.
HCT-116 or IMR90 cells were recovered from sub-confluent plates by trypsinization and 1,000 or 4,000 cells, respectively, were plated in 24-well dishes and incubated overnight at 37° C., 5% CO2. HCT-116 cells were cultured in RPMI-1640, 10% FCS, and IMR90 cells were cultured in Minimum Essential Medium-alpha, 10% FCS. After overnight incubation to allow adherence, the media was aspirated from each well and replaced with media containing a test compound at a concentration from 0 to 250 nM, spanning a total of 7 doses. The plates were returned to the incubator and cultured for an additional 72 hours (3 days). […] After 72-hours incubation with the test compound, the cells were washed twice with 1×PBS, taking special care to remove all residual buffer.
A 5 μM Calcein AM solution was prepared by dissolving a […] aliquot of Calcein (Molecular Probes catalog # C3100) in 50 μl DMSO. After the Calcein had completely dissolved (10 minutes at room temperature), it was diluted into 10 ml PBS. Calcein/PBS (0.5 ml) was added to each well. The plates were incubated for 75 minutes at 37° C. (protected from light) and the fluorescent signal was read on a fluorescent plate reader (excitation 485/20 and emission 530/25).

HCT-116 cells [2] = test: BrdU incorporation assay; format: cell-based; conditions: Homo sapiens, read-out: Brd U, concentration that inhibits BrdU incorporation by 50%
Protocol: This method measured the percentage of cells that incorporated the nucleotide analog, BrdU, into newly synthesized DNA as cells progressed through the S phase of the cell cycle. The inhibition of BrdU incorporation was used as a measure of a Cdk inhibitor's effect on S phase progression and DNA replication.
3 sets of HCT-116 cells (100,000 cells/set) were plated in T25 flasks and incubated with a test compound as above. Analysis was done at 24, 48, and 72 hours. BrdU was added to each T-25 flask from a stock of 10 mg/ml to a final concentration of 10 μM and the cells were incubated for an additional 16-18 hours at 37° C. The cells were then prepared for flow cytometric analysis according to manufacturer's protocol (BrdU Flow kit, BD-Pharmingen catalogue #2354KK) as follows:
Cells were harvested (adherent and floating) from the T25 flasks directly into Falcon 12×75 flow cytometric tubes as above followed by fixation and permeabilization with the addition of 100 μl of Cytofix/Cytoperm buffer (30 minutes, room temperature). The cells were then washed with 1 ml of Perm Wash buffer and the cell pellets were resuspended in 100 μl Cytoperm Plus buffer and incubated on ice for 10 minutes. The cells were then washed again with 1 ml of Perm Wash buffer and the fixation was repeated in 100 μl of Cytofix/Cyto Perm buffer for 10 minutes at room temperature. The cells were then washed with 1 ml of Perm Wash buffer. The cells were next treated for one hour at 37° C. with 100 μl DNase to expose incorporated BrdU followed by another wash step with 1 ml of Perm Wash buffer. […] Cells were protected from light and incubated at room temperature for 20-30 minutes. Following the incubation, the cells were washed with 1 ml of Perm Wash buffer, resuspended in 300 μl of 2% FBS in PBS, and analyzed on the flow cytometer. Results are presented in Table 2 as the concentration of compound (μM) that inhibits of BrdU incorporation by 50%.

Cdk4/cyclin D1 = target: T1, Cdk4/cyclin D1 (Homo sapiens, UniProt P11802); test: Biochemical kinase assay Cdk4/cyclin D1; conditions: Table 6
T1 construct: made in house; host or cells: Sf9 insect cells
T1 sequence (P11802 whole entry, species assumed): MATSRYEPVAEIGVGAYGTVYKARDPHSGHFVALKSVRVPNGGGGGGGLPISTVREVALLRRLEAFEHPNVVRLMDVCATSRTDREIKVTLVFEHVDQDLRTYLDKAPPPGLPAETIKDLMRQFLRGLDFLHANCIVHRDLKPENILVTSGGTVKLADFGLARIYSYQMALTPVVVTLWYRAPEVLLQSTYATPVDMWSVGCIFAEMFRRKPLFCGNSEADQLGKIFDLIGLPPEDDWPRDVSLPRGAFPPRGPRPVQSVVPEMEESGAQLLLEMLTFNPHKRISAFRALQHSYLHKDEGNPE
T1 sequence (P24385 whole entry partner, species assumed): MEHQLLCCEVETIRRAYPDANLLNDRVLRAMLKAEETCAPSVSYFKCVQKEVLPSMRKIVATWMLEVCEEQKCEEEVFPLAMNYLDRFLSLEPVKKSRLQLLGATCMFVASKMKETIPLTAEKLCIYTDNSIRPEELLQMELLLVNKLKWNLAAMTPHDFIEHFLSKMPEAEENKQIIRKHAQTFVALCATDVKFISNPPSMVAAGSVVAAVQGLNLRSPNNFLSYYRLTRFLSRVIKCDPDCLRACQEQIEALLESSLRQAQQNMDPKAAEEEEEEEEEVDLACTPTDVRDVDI
How it was run: (§6)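 Sf9-expressed Cdk/cyclin heterodimers phosphorylate GST-Rb (residues 379–928, 40 μg) with 50 μM ATP plus [γ-33P]ATP, pH 7.5, 10% DMSO, 15 min at 30 °C. Compounds 1 nM–10 μM. 33P captured on glutathione-sepharose and scintillation-counted; activity relative to DMSO control after EDTA-background subtraction.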

HIV-1 ROJO = test: Antiviral activity in PBMCs infected with HIV-1 ROJO (reverse transcriptase); format: cell-based; conditions: for IC50: Human immunodeficiency virus 1, PBMC, 168 h, read-out: IC50: 50% inhibition of virus replication measured by reverse transcriptase levels in the supernatant, HIV-1 ROJO, 7 days post infection
Protocol: (§7) The activity of the certain compounds of the invention was evaluated in peripheral blood mononuclear cells (PBMCs) infected with the low passage, clinical isolate HIV-1 ROJO to generate a measure of the efficacy of these compounds in acutely infected cells. The use of these normal human cells allows an estimate of the therapeutic index of these compounds to be made. Fresh PBMCs from two donors were pooled and stimulated with PHA-P for 48-72 hours. The cells were then cultured in the presence of IL-2 to maintain the cell division initiated by the mitogenic signal. The virus was added at a multiplicity of infection of 0.1. The cells were cultured for 7 days post infection prior to the evaluation of efficacy. Viral replication was measured by the level of reverse transcriptase activity in the supernatant and cytotoxicity was measured with the MTS assay.

Cdc2/cyclin B = target: T2, Cdc2/cyclin B (Homo sapiens, UniProt P06493); test: Biochemical kinase assay Cdc2/cyclin B; conditions: Table 6
T2 construct: purchased
T2 sequence (P06493 whole entry, species assumed): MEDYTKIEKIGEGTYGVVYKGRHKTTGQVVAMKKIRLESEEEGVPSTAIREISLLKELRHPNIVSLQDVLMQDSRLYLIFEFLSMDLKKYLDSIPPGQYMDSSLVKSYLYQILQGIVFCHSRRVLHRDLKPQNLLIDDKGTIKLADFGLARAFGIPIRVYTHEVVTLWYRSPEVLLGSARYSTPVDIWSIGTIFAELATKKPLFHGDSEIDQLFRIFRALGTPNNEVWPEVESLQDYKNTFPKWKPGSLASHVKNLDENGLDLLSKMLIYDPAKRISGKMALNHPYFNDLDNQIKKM
T2 sequence (P14635 whole entry partner, species assumed): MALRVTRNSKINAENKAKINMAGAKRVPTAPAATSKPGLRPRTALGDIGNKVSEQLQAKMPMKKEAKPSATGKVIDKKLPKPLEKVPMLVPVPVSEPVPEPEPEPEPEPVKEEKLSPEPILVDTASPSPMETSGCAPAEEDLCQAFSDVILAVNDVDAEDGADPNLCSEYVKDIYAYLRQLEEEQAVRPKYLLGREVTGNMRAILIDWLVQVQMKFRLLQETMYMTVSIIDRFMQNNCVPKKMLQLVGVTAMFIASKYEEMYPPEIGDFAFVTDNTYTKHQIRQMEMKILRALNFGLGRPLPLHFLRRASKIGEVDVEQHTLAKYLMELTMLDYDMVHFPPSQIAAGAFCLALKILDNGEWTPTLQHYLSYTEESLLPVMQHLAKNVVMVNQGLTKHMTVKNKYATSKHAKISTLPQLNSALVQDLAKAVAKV
How it was run: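 Radiometric TCA-precipitation assay measuring [γ-32P]ATP incorporation into Histone H1 (20 μg); 50 μM ATP, 10% DMSO, Tris pH 7.5 with MgCl2 and DTT. Compounds at 1 nM to 10 μM; reaction 20 min at 30 °C, stopped with EDTA/ATP. Activity relative to DMSO control after subtracting 50 mM EDTA background.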

[3] = Cytotoxicity in PBMCs (MTS assay); format: cell-based, human; conditions: human
Protocol: as §7

Cdk2/cyclin E = target: T3, Cdk2/cyclin E (Homo sapiens, UniProt P24941); test: Biochemical kinase assay Cdk2/cyclin E; conditions: Table 6
T3 construct: made in house; host or cells: Sf9 insect cells
How it was run: as §6

[4] = HCT-116, 72 h, Calcein AM, 72 hours, read-out: HCT-116 IC50 Viability
[5] = HCT-116, plus 1 mg/ml alpha acidic glycoprotein and 45 mg/ml human serum albumin, read-out: HCT-116 IC50 Protein adjusted
[6] = HCT-116, non-protein adjusted, Table 6, read-out: HCT-116 viability IC50

Row | IC50 (arrested HCT-116 cells) | IC50 (HCT-116 cells [1]; [4]) | IC50 (HCT-116 cells [2]; HCT-116, 24 h) | IC50 (HCT-116 cells [2]; HCT-116, 48 h) | Compound | IC50 (arrested IMR90 cells) | TI: TC50/IC50 (HIV-1 ROJO) | IC50 (HIV-1 ROJO) | CC50 at 7 days [3] | IC50 (Cdk2/cyclin E) | IC50 (HCT-116 cells [1]; [6]) | further results
1 | < 10 nM | < 100 nM | < 100 nM | < 100 nM | CC(C)N1CCN(Cc2cc(-c3[nH]nc4c3C(=O)c3c(NC(=O)NN5CCOCC5)cccc3-4)ccc2O)CC1 [K] | > 1000 nM | – | – | – | – | – | –
2 | – | – | – | – | CC(C)c1nn(-c2c(Cl)cc(Cl)cc2Cl)c2nc(Cc3ccc(OCCO)cc3)[nH]c(=O)c12 [Compound A61] | – | >10 | < 10 nM | < 100 nM | < 100 nM | – | IC50 (Cdk4/cyclin D1): < 1000 nM; IC50 (Cdc2/cyclin B): < 100 nM
3 | < 100 nM | – | – | < 1000 nM | O=C(Nc1cccc2c1C(=O)c1c-2n[nH]c1-c1ccc(OCCN(CCO)CCO)cc1)NN1CCOCC1 [H] | > 1000 nM | – | – | – | – | – | IC50 (HCT-116 cells [1]; [5]): < 1000 nM
4 | < 100 nM | – | < 100 nM | – | CN1CCN(NC(=O)Nc2cccc3c2C(=O)c2c-3n[nH]c2-c2ccc(OCCN3CC[C@H](O)C3)cc2)CC1 [O] | > 100 nM | – | – | – | – | – | IC50 (HCT-116 cells [1]; [5]): < 1000 nM
5 | < 100 nM | < 100 nM | – | < 100 nM | CN1CCN(NC(=O)Nc2cccc3c2C(=O)c2c-3n[nH]c2-c2ccc(OCCN3CCC[C@H]3CO)cc2)CC1 [Compound M] | > 1000 nM | – | – | – | – | – | –
6 | – | – | – | – | CC(C)c1nn(-c2c(Cl)cccc2Cl)c2nc(Cc3ccc(CN4CCCC4)c(O)c3)[nH]c(=O)c12.Cl [Compound C3] | – | >10 | < 10 nM | < 100 nM | < 100 nM | < 100 nM | –
7 | – | – | – | – | CC(C)c1nn(-c2c(Cl)cc(Cl)cc2Cl)c2nc(Cc3ccc(OCC(C)(C)O)cc3)[nH]c(=O)c12 [Compound A64] | – | >10 | < 10 nM | < 100 nM | < 100 nM | < 100 nM | IC50 (Cdk4/cyclin D1): < 1000 nM; IC50 (Cdc2/cyclin B): < 100 nM
8 | < 10 nM | – | – | < 100 nM | CC(C)c1nn(-c2c(Cl)cc(Cl)cc2Cl)c2nc(Cc3ccc(NS(=O)(=O)CCCN4CCOCC4)cc3)[nH]c(=O)c12 [D] | > 1000 nM | – | – | – | – | – | IC50 (HCT-116 cells [2]; HCT-116, 72 h): < 100 nM
9 | < 100 nM | < 100 nM | < 10 nM | – | CCCN(CCOc1ccc(-c2[nH]nc3c2C(=O)c2c(NC(=O)NN4CCOCC4)cccc2-3)cc1)CC1CC1 [G] | > 100 nM | – | – | – | – | – | –
10 | – | – | – | – | CC(C)c1nn(-c2c(Cl)cccc2Cl)c2nc(Cc3ccc(OCCN4CCOCC4)c(O)c3)[nH]c(=O)c12 [Compound A32] | – | >10 | < 10 nM | < 100 nM | < 100 nM | < 100 nM | IC50 (Cdk4/cyclin D1): < 100 nM; IC50 (Cdc2/cyclin B): < 1000 nM
11 | < 100 nM | < 100 nM | < 10 nM | – | O=C(Nc1cccc2c1C(=O)c1c-2n[nH]c1-c1ccc(OCCN2CCCC2)cc1)NN1CCOCC1 [Compound I] | > 1000 nM | – | – | – | – | – | –
12 | – | – | – | – | CC(C)c1nn(-c2c(Cl)cc(Cl)cc2Cl)c2nc(Cc3ccc(CNC(CO)CO)n3C)[nH]c(=O)c12.Cl [Compound C4] | – | >1 | < 100 nM | < 100 nM | < 10 nM | < 100 nM | –
13 | < 100 nM | – | – | < 100 nM | CN1CCN(NC(=O)Nc2cccc3c2C(=O)c2c-3n[nH]c2-c2ccc(OCCN3CCOCC3)cc2)CC1 [Q] | > 100 nM | – | – | – | – | – | –
